Measurements reported in ChEMBL document CHEMBL5034004, “Discovery of M3 Antagonist-PDE4 Inhibitor Dual Pharmacology Molecules for the Treatment of Chronic Obstructive Pulmonary Disease” (J Med Chem, 2021).
In brackets after ≈: the same amount, converted by molar mass.

Legend:
[1] = biological target: T1, Muscarinic acetylcholine receptor M3 (Homo sapiens, UniProt P20309); assay: Binding affinity to human M3 receptor membranes assessed as association half life by liquid scintillation counting analysis; settings: Cell membrane, filed as antagonist
Target sequence in this assay (P20309 whole entry, looked up): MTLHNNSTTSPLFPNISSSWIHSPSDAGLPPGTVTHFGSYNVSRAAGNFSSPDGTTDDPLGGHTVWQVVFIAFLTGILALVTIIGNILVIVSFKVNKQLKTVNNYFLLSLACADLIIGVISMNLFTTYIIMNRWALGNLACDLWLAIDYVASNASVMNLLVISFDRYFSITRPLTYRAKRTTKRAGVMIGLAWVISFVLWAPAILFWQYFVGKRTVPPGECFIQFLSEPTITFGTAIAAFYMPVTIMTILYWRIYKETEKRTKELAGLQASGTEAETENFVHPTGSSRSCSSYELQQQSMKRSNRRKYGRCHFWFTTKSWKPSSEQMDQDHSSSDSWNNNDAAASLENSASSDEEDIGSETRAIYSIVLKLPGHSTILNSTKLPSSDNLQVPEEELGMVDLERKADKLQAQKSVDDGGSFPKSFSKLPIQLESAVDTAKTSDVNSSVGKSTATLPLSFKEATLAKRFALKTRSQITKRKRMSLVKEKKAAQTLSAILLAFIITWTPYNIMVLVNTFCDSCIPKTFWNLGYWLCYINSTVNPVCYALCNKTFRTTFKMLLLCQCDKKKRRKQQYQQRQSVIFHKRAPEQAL

[2] = biological target: T1, Muscarinic acetylcholine receptor M3; assay: Binding affinity to human M3 receptor membranes assessed as dissociation half life by liquid scintillation counting analysis; settings: Cell membrane, filed as antagonist
Target sequence in this assay (P20309 whole entry, looked up): as above

[3] = Toxicity in ferret assessed as induction of emesis at 10 umol/kg, IT measured for 4 hrs; design: species or system Mustela putorius furo; settings: in vivo, inhaled_or_intranasal, dose 10 µmol/kg
[4] = Toxicity in ferret assessed as nausea-like score at 10 umol/kg, IT observed for 4 hrs (Rvb= 12.83+/-5.10); design: species or system Mustela putorius furo; settings: in vivo, inhaled_or_intranasal, dose 10 µmol/kg
[5] = biological target: T1, Muscarinic acetylcholine receptor M3; assay: Displacement of [3H]-N-methyl Scopolamine Chloride from human M3 receptor membranes incubated for 2 hrs by scintillation counting analysis; assay type: cell membranes, Cell membrane
Target sequence in this assay (P20309 whole entry): as the sequence (P20309 whole entry, looked up) above

[6] = Antagonist activity at muscarinic M3 receptor in guinea pig trachea assessed as inhibition of carbachol-induced contraction; assay type: tissue-based, Cavia porcellus
[7] = biological target: 3',5'-cyclic phosphodiesterase; assay: Inhibition of PDE4 in human U-937 cells assessed as […] in cAMP level by LANCE cAMP Assay; assay type: cell-based
[8] = Kinetic solubility of compound in PBS at pH 7.4 […] incubated for 2 hrs by LC-UV and LC-MS analysis; assay type: physicochemical; settings: read-out: Kinetic_solubility
[9] = biological target: 3',5'-cyclic-AMP phosphodiesterase 4B (Homo sapiens, UniProt Q07343); assay: Inhibition of human recombinant PDE4B2 assessed as […] in cAMP level incubated for 2 hrs by LANCE Ultra cAMP TR-FRET assay
[10] = Antiinflammatory activity in human PBMCs assessed as inhibition of LPS-induced TNF-alpha release measured after 18 hrs by ELISA; assay type: functional, tissue-based, PBMC; settings: for IC50: Homo sapiens, PBMC, 18 h; for pIC50: pbmc
Cavia porcellus [11] = assay: Bronchodilatory activity in Dunkin Hartley guinea pig model assessed as inhibition of acetylcholine-induced bronchoconstriction at 30 nmol/kg, IT measured after 1 hrs by Konzett-Roessler methodology relative to control; assay type: functional
Cavia porcellus [12] = assay: Bronchodilatory activity in IT dosed Dunkin Hartley guinea pig model assessed as inhibition of acetylcholine-induced bronchoconstriction measured after 1 hr by Konzett-Roessler methodology; assay type: functional
Cavia porcellus [13] = assay: Bronchodilatory activity in Dunkin Hartley guinea pig model assessed as inhibition of acetylcholine-induced bronchoconstriction at 30 nmol/kg, IT measured after 16 hrs by Konzett-Roessler methodology relative to control; assay type: functional
[14] = biological target: Muscarinic acetylcholine receptor M3 (Rattus norvegicus, UniProt P08483); assay: Antagonist activity at muscarinic M3 receptor in rat trachea assessed as inhibition of carbachol-induced contraction; assay type: functional, tissue-based
Cavia porcellus [15] = assay: Bronchodilatory activity in Dunkin Hartley guinea pig model assessed as inhibition of acetylcholine-induced bronchoconstriction at 10 nmol/kg, IT measured after 1 hr by Konzett-Roessler methodology relative to control; assay type: functional
Cavia porcellus [16] = assay: Bronchodilatory activity in Dunkin Hartley guinea pig model assessed as inhibition of acetylcholine-induced bronchoconstriction at 3 nmol/kg, IT measured after 1 hr by Konzett-Roessler methodology relative to control; assay type: functional; settings: Cavia porcellus, Dunkin Hartley
Cavia porcellus [17] = assay: Bronchodilatory activity in Dunkin Hartley guinea pig model assessed as inhibition of acetylcholine-induced bronchoconstriction at 3 nmol/kg, IT measured after 16 hrs by Konzett-Roessler methodology relative to control; assay type: functional
[18] = Cavia porcellus, Dunkin Hartley, read-out: ED50
[19] = Cavia porcellus, Dunkin Hartley, 1 h, read-out: ED50

Sequence of 3',5'-cyclic-AMP phosphodiesterase 4B (Q07343 whole entry): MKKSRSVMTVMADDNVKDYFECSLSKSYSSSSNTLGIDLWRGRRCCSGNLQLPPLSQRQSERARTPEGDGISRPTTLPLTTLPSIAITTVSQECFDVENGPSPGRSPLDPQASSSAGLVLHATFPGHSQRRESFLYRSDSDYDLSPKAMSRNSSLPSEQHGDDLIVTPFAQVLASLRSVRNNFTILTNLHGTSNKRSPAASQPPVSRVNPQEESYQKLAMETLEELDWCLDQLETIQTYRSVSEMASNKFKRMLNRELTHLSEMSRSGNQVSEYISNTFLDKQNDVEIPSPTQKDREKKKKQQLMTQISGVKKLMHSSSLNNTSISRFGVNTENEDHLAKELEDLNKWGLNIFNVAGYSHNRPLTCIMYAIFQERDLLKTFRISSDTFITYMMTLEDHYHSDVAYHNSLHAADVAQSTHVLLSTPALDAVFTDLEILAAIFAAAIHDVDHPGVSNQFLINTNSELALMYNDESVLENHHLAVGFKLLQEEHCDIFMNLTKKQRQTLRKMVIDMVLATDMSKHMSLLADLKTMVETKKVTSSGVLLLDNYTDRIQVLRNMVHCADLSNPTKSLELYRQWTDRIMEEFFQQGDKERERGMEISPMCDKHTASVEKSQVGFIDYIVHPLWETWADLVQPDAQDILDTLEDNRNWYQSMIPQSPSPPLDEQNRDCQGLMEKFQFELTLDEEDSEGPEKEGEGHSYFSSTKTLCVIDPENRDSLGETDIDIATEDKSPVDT
Sequence of Muscarinic acetylcholine receptor M3 (Rattus norvegicus, UniProt P08483) (P08483 whole entry): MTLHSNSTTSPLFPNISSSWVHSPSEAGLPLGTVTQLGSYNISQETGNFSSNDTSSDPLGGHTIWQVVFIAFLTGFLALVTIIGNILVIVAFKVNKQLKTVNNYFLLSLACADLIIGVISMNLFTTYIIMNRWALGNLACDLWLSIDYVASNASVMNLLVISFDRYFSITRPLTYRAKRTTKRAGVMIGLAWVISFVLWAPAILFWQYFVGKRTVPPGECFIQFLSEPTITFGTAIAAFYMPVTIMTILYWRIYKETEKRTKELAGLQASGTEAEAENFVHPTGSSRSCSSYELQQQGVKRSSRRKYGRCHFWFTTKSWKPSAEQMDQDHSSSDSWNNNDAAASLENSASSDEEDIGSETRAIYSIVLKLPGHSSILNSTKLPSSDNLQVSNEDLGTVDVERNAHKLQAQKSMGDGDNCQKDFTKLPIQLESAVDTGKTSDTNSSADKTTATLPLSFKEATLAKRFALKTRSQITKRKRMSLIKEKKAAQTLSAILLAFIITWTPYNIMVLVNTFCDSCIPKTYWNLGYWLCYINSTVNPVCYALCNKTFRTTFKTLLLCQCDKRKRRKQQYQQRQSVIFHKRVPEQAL

## COc1ccc([C@H](Cc2c(Cl)c[n+]([O-])cc2Cl)OC(=O)c2ccc(CNC(C(=O)O[C@H]3CN4CCC3CC4)c3ccccc3)s2)cc1OC (stereo in doubt; 92a)
[1]
  T1/2: 13.7 h
[2]
  T1/2: 29.5 h

## O=C(Nc1c(Cl)cncc1Cl)c1ccc(OC(F)F)c(OCC2CC2)c1 [ROFLUMILAST]
[3]
  Activity: Toxic
[4]
  Activity: 72.5

## COc1ccc([C@H](Cc2c(Cl)c[n+]([O-])cc2Cl)OC(=O)c2cccc(S(=O)(=O)NC(C(=O)O[C@H]3CN4CCC3CC4)c3ccccc3)c2)cc1OC (some centres undefined)
[5]
  Ki: 631 pM
[6]
  pIC50: 8.2
[7]
  pIC50: 9.6

## CC(C)Oc1cc([C@H](Cc2c(Cl)c[n+]([O-])cc2Cl)OC(=O)c2ccc(CN(C(=O)O[C@H]3CN4CCC3CC4)c3ccccc3F)s2)ccc1OC(F)F
[8]
  solubility kinetic at 2 h: < 5 µM
[5]
  Ki: 316 pM
[6]
  pIC50: 7.5

## C[N+]1(C)[C@@H]2C[C@H](OC(=O)C(O)(c3cccs3)c3cccs3)C[C@H]1[C@@H]1O[C@@H]12
[1]
  T1/2: 10.3 h
[2]
  T1/2: 22.5 h

## COc1ccc([C@H](Cc2c(Cl)c[n+]([O-])cc2Cl)OC(=O)c2cccc(CNC(C(=O)O[C@H]3CN4CCC3CC4)c3ccccc3)c2)cc1OC (stereo in doubt; 86a)
[5]
  Ki: 398 pM
[6]
  pIC50: 8.2
[7]
  pIC50: 9.5

## COc1ccc([C@H](Cc2c(Cl)c[n+]([O-])cc2Cl)OC(=O)c2cccc(CN(C(=O)O[C@H]3CN4CCC3CC4)c3ccccc3)c2)cc1OC
[9]
  IC50: 6310 pM
[5]
  Ki: 316 pM
[10]
  IC50: 5010 pM
[6]
  pIC50: 9.2
[7]
  pIC50: 9

## COc1ccc([C@H](Cc2c(Cl)c[n+]([O-])cc2Cl)OC(=O)c2ccc(CNC(C(=O)OC3CCN(C)CC3)c3ccccc3)s2)cc1OC (stereo in doubt; 92e)
Cavia porcellus [11]
  inhibition in vivo at 0.03 µmol/kg: 75%
Cavia porcellus [12]; [18]
  ED50: 0.0041 µmol/kg
[9]
  IC50: 501 pM
[5]
  Ki: 251 pM
[10]
  pIC50: 8.6
Cavia porcellus [13]
  inhibition in vivo at 0.03 µmol/kg: 2%
[14]
  IC50: 1580 pM

## O=C(O[C@@H](Cc1c(Cl)c[n+]([O-])cc1Cl)c1ccc(OC(F)F)c(OCC2CC2)c1)c1cccc(CN(C(=O)O[C@H]2CN3CCC2CC3)c2ccccc2)c1
[5]
  Ki: 1260 pM
[6]
  pIC50: 6.5
[7]
  pIC50: 9.9

## O=C(O[C@@H](Cc1c(Cl)c[n+]([O-])cc1Cl)c1ccc(OC(F)F)c(OCC2CC2)c1)c1cccc(NC(C(=O)O[C@H]2CN3CCC2CC3)c2ccccc2)c1 (some centres undefined)
[5]
  Ki: 794 pM
[6]
  pIC50: < 6
[7]
  pIC50: 9

## COc1cc([C@H](Cc2c(Cl)c[n+]([O-])cc2Cl)OC(=O)c2ccc(CN(C(=O)O[C@H]3CN4CCC3CC4)c3ccccc3F)s2)ccc1OC(F)F
[8]
  solubility kinetic at 2 h: < 5 µM
[5]
  Ki: 251 pM
[6]
  pIC50: 8.2

## CCOc1cc([C@H](Cc2c(Cl)c[n+]([O-])cc2Cl)OC(=O)c2ccc(CN(C(=O)O[C@H]3CN4CCC3CC4)c3ccccc3F)s2)ccc1OC(F)F
[8]
  solubility kinetic at 2 h: < 5 µM
[5]
  Ki: 316 pM
[6]
  pIC50: 8.3

## COc1ccc([C@H](Cc2c(Cl)c[n+]([O-])cc2Cl)OC(=O)c2ccc(CN(C(=O)O[C@H]3CN4CCC3CC4)c3ccccn3)s2)cc1OC
Cavia porcellus [15]
  inhibition in vivo at 0.01 µmol/kg: 78%
[9]
  IC50: 631 pM
[5]
  Ki: 501 pM
[10]
  IC50: 501 pM
[6]
  pIC50: 8.7

## COc1ccc([C@H](Cc2c(Cl)c[n+]([O-])cc2Cl)OC(=O)c2ccc(CN(C(=O)O[C@H]3CN4CCC3CC4)c3ccccc3)s2)cc1OC
Cavia porcellus [12]; [19]
  ED50: 0.0016 µmol/kg
[9]
  IC50: 1000 pM
Cavia porcellus [16]; 1 h
  inhibition in vivo at 0.003 µmol/kg: 82%
[5]
  Ki: 100 pM
[10]
  IC50: 794 pM
[6]
  pIC50: 8.4

## COc1ccc([C@H](Cc2c(Cl)c[n+]([O-])cc2Cl)OC(=O)c2ccc(CNC(C(=O)O[C@@H]3CCN(C)C3)c3ccccc3)s2)cc1OC (stereo in doubt; 92f)
Cavia porcellus [12]; [18]
  ED50: 0.001 µmol/kg
[9]
  IC50: 1580 pM
Cavia porcellus [16]
  inhibition in vivo at 0.003 µmol/kg: 96%
[5]
  Ki: 126 pM
[10]
  pIC50: 8.5
Cavia porcellus [13]
  inhibition in vivo at 0.03 µmol/kg: 41%
[14]
  IC50: 1580 pM

## COc1ccc([C@H](Cc2c(Cl)c[n+]([O-])cc2Cl)OC(=O)c2ccc(CN(C(=O)O[C@H]3CN4CCC3CC4)c3ccccc3F)s2)cc1OC
[8]
  solubility kinetic at 2 h: 134 µM (≈ 97.9 µg/mL)
Cavia porcellus [12]; [19]
  ED50: 0.0005 µmol/kg
[9]
  IC50: 501 pM
Cavia porcellus [16]; 1 h
  inhibition in vivo at 0.003 µmol/kg: 97%
Cavia porcellus [17]; Cavia porcellus, Dunkin Hartley
  inhibition in vivo at 0.003 µmol/kg: 38%
[5]
  Ki: 126 pM
[10]
  IC50: 1260 pM
[6]
  pIC50: 9.1

## O=C(O[C@@H](Cc1c(Cl)c[n+]([O-])cc1Cl)c1ccc(OC(F)F)c(OCC2CC2)c1)c1cccc(CNC(C(=O)O[C@H]2CN3CCC2CC3)c2ccccc2)c1 (some centres undefined)
[5]
  Ki: 631 pM
[6]
  pIC50: 7.6
[7]
  pIC50: 9.5

## COc1ccc([C@H](Cc2c(Cl)c[n+]([O-])cc2Cl)OC(=O)c2ccc(CNC(C(=O)OC3C[C@H]4CC[C@H](C3)N4C)c3ccccc3)s2)cc1OC (stereo in doubt; 91d)
[9]
  IC50: 1000 pM
[5]
  Ki: 501 pM
[10]
  IC50: 2510 pM
[14]
  IC50: 10000 pM

## COc1ccc([C@H](Cc2c(Cl)c[n+]([O-])cc2Cl)OC(=O)c2cccc(NC(C(=O)O[C@H]3CN4CCC3CC4)c3ccccc3)c2)cc1OC (some centres undefined)
[5]
  Ki: 398 pM
[6]
  pIC50: 7.7
[7]
  pIC50: 9.8

## O=C(O[C@@H](Cc1c(Cl)c[n+]([O-])cc1Cl)c1ccc(OC(F)F)c(OCC2CC2)c1)c1ccc(CN(C(=O)O[C@H]2CN3CCC2CC3)c2ccccc2F)s1
[8]
  solubility kinetic at 2 h: < 5 µM
[5]
  Ki: 200 pM
[6]
  pIC50: 8.2

## COc1ccc([C@H](Cc2c(Cl)c[n+]([O-])cc2Cl)OC(=O)c2ccc(CNC(C(=O)O[C@H]3CN4CCC3CC4)c3ccccc3)s2)cc1OC (stereo in doubt; 91a)
Cavia porcellus [12]; 1 h
  ED50: 0.0016 µmol/kg
[9]
  IC50: 1580 pM
Cavia porcellus [16]; 1 h
  inhibition in vivo at 0.003 µmol/kg: 73%
Cavia porcellus [17]; 0.003 umol/kg
  inhibition (INH): 32%
[5]
  Ki: 126 pM
[10]
  IC50: 3160 pM
[14]
  IC50: 2000 pM
[6]
  pIC50: 8.9

## O=C(O[C@@H](Cc1c(Cl)c[n+]([O-])cc1Cl)c1ccc(OC(F)F)c(OCC2CC2)c1)c1cccc(S(=O)(=O)NC(C(=O)O[C@H]2CN3CCC2CC3)c2ccccc2)c1 (some centres undefined)
[5]
  Ki: 1260 pM
[6]
  pIC50: 7.3
[7]
  pIC50: 10
